Assay results from article PMC4721062, “Oxadiazole-2-oxides may have other functional targets, in addition to SjTGR, through which they cause mortality in Schistosoma japonicum” (Parasites & Vectors, 2016).
Where two headings read alike, the source gives them in different places.

Tests used:
recombinant SjTGR = biological target: T1, recombinant SjTGR (Schistosoma japonicum, UniProt B5THG7); assay: Inhibition of TrxR activity of recombinant SjTGR (DTNB assay); type: biochemical; conditions: 50 nM SjTGR, 1 mM NADPH, 15 min preincubation, DTNB reduction; for IC50: read-out: IC50 of SjTGR
T1 sequence (B5THG7 1-596): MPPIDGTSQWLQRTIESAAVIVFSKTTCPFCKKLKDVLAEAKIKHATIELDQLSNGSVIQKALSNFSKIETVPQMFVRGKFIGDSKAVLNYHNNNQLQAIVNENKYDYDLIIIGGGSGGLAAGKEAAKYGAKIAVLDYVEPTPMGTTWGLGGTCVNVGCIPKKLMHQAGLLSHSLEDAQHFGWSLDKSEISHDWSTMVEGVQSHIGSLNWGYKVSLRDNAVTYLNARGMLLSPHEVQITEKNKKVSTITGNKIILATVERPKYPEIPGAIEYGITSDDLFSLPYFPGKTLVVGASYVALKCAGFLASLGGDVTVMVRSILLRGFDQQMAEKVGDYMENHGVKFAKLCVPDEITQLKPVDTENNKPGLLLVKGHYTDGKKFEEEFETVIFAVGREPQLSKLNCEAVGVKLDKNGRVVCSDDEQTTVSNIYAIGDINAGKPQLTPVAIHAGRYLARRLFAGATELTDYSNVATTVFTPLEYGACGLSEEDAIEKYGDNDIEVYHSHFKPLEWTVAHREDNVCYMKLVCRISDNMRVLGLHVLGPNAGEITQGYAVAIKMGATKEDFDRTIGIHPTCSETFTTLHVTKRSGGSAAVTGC
Description: The purified recombinant SjTGR proteins were produced according to the method described by Song et al.. The inhibition of TrxR activity by the recombinant SjTGR was performed as reported by Rai et al.. Briefly, 50 nM SjTGR and 1 mM NADPH were incubated with different concentrations of oxadiazole-2-oxides (2, 4, 6, 10, 20 μM) for 15 min at room temperature. Then, potassium phosphate buffer (pH 7.4) containing 10 mM EDTA, 100 μM NADPH, and 3 mM DTNB was added to start the reaction. The increase of absorbance at 412 nm was monitored during the first 2 min. All assays were done in triplicate.
50 nM SjTGR and 1 mM NADPH were incubated with different concentrations of oxadiazole-2-oxides (2, 4, 6, 10, 20 μM) for 15 min at room temperature. Then, potassium phosphate buffer (pH 7.4) containing 10 mM EDTA, 100 μM NADPH, 3 mM DTNB was added to start the reaction. The increase in absorbance at 412 nm was monitored during the first 2 min. All assays were done in triplicate. Results shown are the mean ± SD (n = 3)

adult S. japonicum = assay: microbe, parasite or virus in culture; type: cell-based; conditions: for killing at 25 µM / killing at 50 µM / killing at 100 µM / mortality at 25 µM: Schistosoma japonicum; for mortality at 25 µM: read-out: Mortality of adult worms
Text: ICR mice (20–22 g), were obtained from the Shanghai Sub-Center of Experimental Animals, Chinese Academy of Sciences. They were maintained at the Department of Experimental Animals, Jiangsu Institute of Parasitic Diseases. To infect each mouse, its abdominal skin was exposed to 50 S. japonica cercariae. All of the mice were executed to collect S. japonica adult worms, through portal vein perfusion, 35 days post-infection. The adult S. japonica collected were washed with RPMI 1640 medium and then kept in RPMI 1640 medium (pH 7.5) with HEPES 20 mM, penicillin (100 IU/mL), streptomycin ([…]) and 10 % fetal bovine serum. Then, two pairs of adult worms were transferred into each well of a 24-well culture plate, with 2 mL of the same medium. The worms were cultured at 37 °C in a humid atmosphere with 5 % CO2.
Adult worms were cultured in a 24-well culture plate for 30–60 min at 37 °C, in a humid atmosphere with 5 % CO2. Then, oxadiazole-2-oxides at different concentrations (10, 25, 50, 100 μM) were added. Equal volumes of RPMI 1640 or DMSO were applied as negative controls, while PZQ was applied as a positive control. The adult worm mobility and parasite survival rates were monitored using an inverted phase contrast microscope, at 24, 48 and 72 h. Parasite death was defined as there being no motor activity during 2 min of continuous observation, and morphological and tegumental alterations. All assays were repeated three times.
^b Data collected by visual examination of worm movement and shape; n.e. […] The data presented are the average of three independent experiments.

juvenile S. japonicum = assay: microbe, parasite or virus in culture; type: cell-based; conditions: for Killing activity 24hr / Killing activity 48hr / Killing activity 72hr: 10 μM
Description: Infected Oncomelania hupensis, provided by the Department of Snail Biology, Jiangsu Institute of Parasitic Diseases, were incubated at 25–28 °C, under illumination, for 2 h to hatch S. japonicum cercariae. The cercariae were collected from the water surface with clean cover glass and placed into a centrifuge tube using pre cooled RPMI 1640. Centrifugation was performed for 1 min at 1500 rpm, and then the steps above were repeated. After centrifugation, the supernatant solution was removed. The cercariae at the bottom were washed twice and resuspended with RPMI 1640. Approximately 20–30 cercariae (1 mL of the resuspension medium) were added to one well in a 24-well culture plate. They were incubated overnight at 37 °C with 5 % CO2. The survival rates and number of tails shed were observed under an inverted microscope. Cercariae that had shed their tails were used as juvenile S. japonicum.
20–30 juvenile worms were transferred into each well of a 24-well culture plate, containing 2 mL RPMI 1640 medium, 20 mM HEPES, 100 IU/mL penicillin, […] streptomycin and 10 % fetal bovine serum. Then, oxadiazole-2-oxides (2, 5, 10, and 50 μM), diluted with the RPMI 1640 medium, were added to their allocated wells. The worms in the negative control wells were treated with equal volumes of RPMI 1640 or DMSO and worms treated with AS were observed as positive controls. The juvenile worms’ survival rates were observed under an inverted phase contrast microscope (Leica, Wetzlar, Germany) at 24, 48 and 72 h. Parasite death was defined as an unclear internal structure of the juvenile worms, with incomplete tegument and contents overflowing radially, or unclear internal structure with complete tegument, but having no motor activity during 1 min of continuous observation. All assays were repeated three times.
^b Data collected by visual examination of worm movement and shape; % D = The number of worms dead / The total number of worms observed, and worms dead judged by unclear internal structure of juvenile worms with uncompleted tegument, and contents overflowing radially, or unclear internal structure with complete tegument, but having no motor activity during 1 min of continuous observation. The data presented are the average of three independent experiments.

[1] = 24 h, read-out: Killing activity 24hr
[2] = 48 h, read-out: Killing activity 48hr
[3] = 72 h, read-out: Killing activity 72hr
[4] = Schistosoma japonicum, 24 h, read-out: Killing activity 24hr
[5] = Schistosoma japonicum, 48 h, read-out: Killing activity 48hr
[6] = Schistosoma japonicum, 72 h, read-out: Killing activity 72hr

Structure (SMILES): N#Cc1c(-c2ccc(OCC(=O)c3ccccc3)cc2)no[n+]1[O-] [Compound 17]
- IC50 of SjTGR (recombinant SjTGR): did not inhibit
- IC50 (recombinant SjTGR): > 20 µM
- killing at 25 µM (adult S. japonicum; adult worms, 25 μM, 72 h, read-out: Killing activity 72hr): 62.5%
- killing at 50 µM (adult S. japonicum; adult worms, 50 μM, 48 h, read-out: Killing activity 48hr): 40%
- killing at 50 µM (adult S. japonicum; adult worms, 50 μM, 72 h, read-out: Killing activity 72hr): 87.5%
- killing at 100 µM (adult S. japonicum; adult worms, 100 μM, 48 h, read-out: Killing activity 48hr): 57.1%
- killing at 100 µM (adult S. japonicum; adult worms, 100 μM, 72 h, read-out: Killing activity 72hr): 85.7%
- Killing activity 24hr (adult S. japonicum; adult worms, 10 μM, 24 h): n.e.
- Killing activity 48hr (adult S. japonicum; adult worms, 10 μM, 48 h): n.e.
- Killing activity 72hr (adult S. japonicum; adult worms, 10 μM, 72 h): 50.0%D
- Killing activity 24hr (adult S. japonicum; adult worms, 25 μM, 24 h): n.e.
- Killing activity 48hr (adult S. japonicum; adult worms, 25 μM, 48 h): n.e.
- Killing activity 24hr (adult S. japonicum; adult worms, 50 μM, 24 h): n.e.
- Killing activity 24hr (adult S. japonicum; adult worms, 100 μM, 24 h): sluggish
- Mortality of adult worms (adult S. japonicum; adult worms, 100 μM, 24 h): did not cause death
- mortality at 50 µM (juvenile S. japonicum; Schistosoma japonicum, 24 h, read-out: Mortality of juvenile worms): < 30%
- killing at 2 µM (juvenile S. japonicum; Schistosoma japonicum, juvenile worms, 2 μM, 24 h, read-out: Killing activity 24hr): 28.1%
- killing at 2 µM (juvenile S. japonicum; Schistosoma japonicum, juvenile worms, 2 μM, 48 h, read-out: Killing activity 48hr): 37.5%
- killing at 2 µM (juvenile S. japonicum; Schistosoma japonicum, juvenile worms, 2 μM, 72 h, read-out: Killing activity 72hr): 46.9%
- killing at 5 µM (juvenile S. japonicum; Schistosoma japonicum, juvenile worms, 5 μM, 24 h, read-out: Killing activity 24hr): 29.2%
- killing at 5 µM (juvenile S. japonicum; Schistosoma japonicum, juvenile worms, 5 μM, 48 h, read-out: Killing activity 48hr): 41.7%
- killing at 5 µM (juvenile S. japonicum; Schistosoma japonicum, juvenile worms, 5 μM, 72 h, read-out: Killing activity 72hr): 50%
- killing at 50 µM (juvenile S. japonicum; Schistosoma japonicum, juvenile worms, 50 μM, 24 h, read-out: Killing activity 24hr): 45.8%
- killing at 50 µM (juvenile S. japonicum; Schistosoma japonicum, juvenile worms, 50 μM, 48 h, read-out: Killing activity 48hr): 60.4%
- killing at 50 µM (juvenile S. japonicum; Schistosoma japonicum, juvenile worms, 50 μM, 72 h, read-out: Killing activity 72hr): 72.9%
- Killing activity 24hr (juvenile S. japonicum; juvenile worms, 24 h): 40.0%D
- Killing activity 48hr (juvenile S. japonicum; juvenile worms, 48 h): 48.6%D
- Killing activity 72hr (juvenile S. japonicum; juvenile worms, 72 h): 54.3%D

Structure (SMILES): CC(C)CCOc1ccc(-c2no[n+]([O-])c2C#N)cc1 [Compound 18]
- IC50 of SjTGR (recombinant SjTGR): did not inhibit SjTGR
- IC50 (recombinant SjTGR): > 20 µM
- killing at 25 µM (adult S. japonicum; [1]): 75%
- killing at 50 µM (adult S. japonicum; [1]): 100%
- killing at 100 µM (adult S. japonicum; [1]): 100%
- mortality at 25 µM (adult S. japonicum; 24 h): > 75%
- killing at 25 µM (adult S. japonicum; [2]): 87.5%
- killing at 50 µM (adult S. japonicum; [2]): 100%
- killing at 100 µM (adult S. japonicum; [2]): 100%
- killing at 25 µM (adult S. japonicum; [3]): 100%
- killing at 50 µM (adult S. japonicum; [3]): 100%
- killing at 100 µM (adult S. japonicum; [3]): 100%
- mortality at 25 µM (adult S. japonicum; 72 h): 100%
- Killing activity 24hr (adult S. japonicum; adult worms, 10 μM, 24 h): 16.7%D
- Killing activity 48hr (adult S. japonicum; adult worms, 10 μM, 48 h): 16.7%D
- Killing activity 72hr (adult S. japonicum; adult worms, 10 μM, 72 h): 50.0%D
- killing at 2 µM (juvenile S. japonicum; [4]): 24.1%
- killing at 5 µM (juvenile S. japonicum; [4]): 33.8%
- killing at 50 µM (juvenile S. japonicum; [4]): 52.4%
- killing at 2 µM (juvenile S. japonicum; [5]): 29.9%
- killing at 5 µM (juvenile S. japonicum; [5]): 40%
- killing at 50 µM (juvenile S. japonicum; [5]): 88.1%
- killing at 2 µM (juvenile S. japonicum; [6]): 35.6%
- killing at 5 µM (juvenile S. japonicum; [6]): 47.5%
- killing at 50 µM (juvenile S. japonicum; [6]): 100%
- Killing activity 24hr (juvenile S. japonicum; juvenile worms, 24 h): 36.6%D
- Killing activity 48hr (juvenile S. japonicum; juvenile worms, 48 h): 42.7%D
- Killing activity 72hr (juvenile S. japonicum; juvenile worms, 72 h): 42.7%D
